Values after ≈ are worked out from the molar mass of the structure shown. No end group written: not given here.
How the values were obtained:
[1] = tested on: Pseudomonas aeruginosa ATCC 27853; assay: Antimicrobial assay I, modified protocol (tryptic soy broth), MBC; conditions: minimum bactericidal concentration, Table 4
[2] = tested on: Candida albicans ATCC 10231; assay: Antimicrobial assay I, modified protocol (tryptic soy broth), MFC; conditions: minimum fungicidal concentration, Table 4
Description: The preparation of all media, stock solutions, and dilutions took place in a laminar flow hood to prevent contamination. Bacterial cells were freshly grown on antibiotic medium 2 agar slants (pH 7.0 at 25° C.). Bacteria were suspended and diluted in antibiotic medium 3 to about 10^4 cfu/ml and used as the inoculum. Sample solutions (100 μl/well) were added to plates according to the plate layout. Inoculum (100 μl/well) was added to achieve a final concentration of 5×10^3 cfu/ml. Negative controls received 100 μl saline and 100 μl growth medium. Positive controls received 100 μl saline and 100 μl inoculum. Bacterial plates were incubated at 37° C. for 24 hours.
However, the data for Table 4 were obtained with a modified protocol wherein the medium was tryptic soy broth, inocolum strength was approximately 10^4 CFU per ml, and values determined were minimum bactericidal concentrations (MBC) or minimum fungicidal concentrations (MFC).
MBC or MFC values are in μg/mL. E. coli is Escherichia coli ATCC accession number 25922; P. aerug is Pseudomonas aeruginosa ATCC accession number 27853, S. aur. is Stapholococcus aureus ATCC accession number 25923; Candida is Candida albicans ATCC accession number 10231.

[3] = tested on: Stapholococcus aureus ATCC 25923; assay: Antimicrobial assay I, modified protocol (tryptic soy broth), MBC; conditions: minimum bactericidal concentration, Table 4
[4] = tested on: Escherichia coli ATCC 25922; assay: as above; conditions: minimum bactericidal concentration, Table 4

CC(C)C[C@H](NC(=O)[C@H](CC(C)C)NC(=O)[C@H](CCCCN)NC(=O)[C@H](CCCCN)NC(=O)[C@H](C)NC(=O)[C@H](CC(C)C)NC(=O)[C@H](CC(C)C)NC(=O)[C@H](CCCCN)NC(=O)[C@H](C)NC(=O)[C@@H](N)Cc1ccccc1)C(N)=O [compound 57]
MBC P. aerug A.27853 [1]: >50 µg/mL
MFC Candida A.10231 [2]: >50 µg/mL
MBC S. aur A.25923 [3]: >50 µg/mL
MBC E. coli A.25922 [4]: >50 µg/mL

CC(C)C[C@H](NC(=O)[C@H](C)NC(=O)[C@H](CCCCN)NC(=O)[C@H](CCCCN)NC(=O)[C@H](CC(C)C)NC(=O)[C@H](C)NC(=O)[C@H](CCCCN)NC(=O)[C@H](CC(C)C)NC(=O)[C@H](CC(C)C)NC(=O)[C@H](C)NC(=O)[C@@H](N)Cc1ccccc1)C(N)=O [compound 171]
MBC P. aerug A.27853 [1]: 100 µg/mL (≈ 82.3 µM)
MFC Candida A.10231 [2]: 50 µg/mL (≈ 41.2 µM)
MBC S. aur A.25923 [3]: >250 µg/mL
MBC E. coli A.25922 [4]: 75 µg/mL (≈ 61.7 µM)

CC[C@H](C)[C@H](NC(=O)CNC(=O)[C@H](CC(C)C)NC(=O)[C@H](CCCCN)NC(=O)[C@H](C)NC(=O)[C@H](CC(C)C)NC(=O)[C@H](C)NC(=O)[C@@H](NC(=O)[C@H](CCCCN)NC(=O)[C@H](C)NC(=O)[C@@H](NC(=O)[C@@H](N)CCCCN)[C@@H](C)CC)C(C)C)C(=O)NCC(=O)N[C@@H](C)C(=O)N[C@H](C(=O)N[C@@H](CC(C)C)C(=O)N[C@@H](CCCCN)C(=O)N[C@H](C(=O)N[C@@H](CC(C)C)C(=O)N[C@H](C(=O)N[C@H](C(=O)NCC(=O)N[C@@H](CC(C)C)C(N)=O)[C@@H](C)O)[C@@H](C)O)C(C)C)C(C)C [compound 105]
MBC P. aerug A.27853 [1]: >50 µg/mL
MFC Candida A.10231 [2]: >50 µg/mL
MBC E. coli A.25922 [4]: 25 µg/mL (≈ 11 µM)

CC(C)C[C@H](NC(=O)[C@H](C)NC(=O)[C@H](CC(C)C)NC(=O)[C@H](C)NC(=O)[C@H](CC(C)C)NC(=O)[C@H](CCCCN)NC(=O)[C@H](C)NC(=O)[C@H](CC(C)C)NC(=O)[C@H](CCCCN)NC(=O)[C@H](CCCCN)NC(=O)[C@H](C)NC(=O)[C@H](CC(C)C)NC(=O)[C@H](CCCCN)NC(=O)[C@H](CCCCN)NC(=O)[C@H](CC(C)C)NC(=O)[C@H](CCCCN)NC(=O)[C@H](CCCCN)NC(=O)[C@H](C)NC(=O)[C@H](CC(C)C)NC(=O)[C@H](CCCCN)NC(=O)[C@H](CCCCN)NC(=O)[C@H](C)NC(=O)[C@@H](N)Cc1ccccc1)C(N)=O [compound 11]
MBC P. aerug A.27853 [1]: 25 µg/mL (≈ 9.86 µM)
MFC Candida A.10231 [2]: >50 µg/mL
MBC S. aur A.25923 [3]: 25 µg/mL (≈ 9.86 µM)
MBC E. coli A.25922 [4]: 40 µg/mL (≈ 15.8 µM)

FALALKA-NH2 [compound 141]
MBC P. aerug A.27853 [1]: INACT
MFC Candida A.10231 [2]: INACT
MBC S. aur A.25923 [3]: INACT
MBC E. coli A.25922 [4]: INACT

CC(C)C[C@H](NC(=O)[C@H](CCCCN)NC(=O)[C@H](C)NC(=O)[C@H](CC(C)C)NC(=O)[C@H](CC(C)C)NC(=O)[C@H](CCCCN)NC(=O)[C@H](C)NC(=O)[C@@H](N)Cc1ccccc1)C(=O)N[C@@H](C)C(=O)N[C@@H](CCCCN)C(=O)N[C@@H](C)C(=O)N[C@@H](CCCCN)C(=O)N[C@@H](C)C(N)=O [compound 95]
MBC P. aerug A.27853 [1]: >50 µg/mL
MFC Candida A.10231 [2]: >50 µg/mL
MBC S. aur A.25923 [3]: >50 µg/mL
MBC E. coli A.25922 [4]: >50 µg/mL

CC(C)C[C@H](NC(=O)[C@H](CCCCN)NC(=O)[C@H](CCCCN)NC(=O)[C@H](C)NC(=O)[C@H](CC(C)C)NC(=O)[C@H](CCCCN)NC(=O)[C@H](C)NC(=O)[C@H](CCCCN)NC(=O)[C@H](CCCCN)NC(=O)[C@H](C)NC(=O)[C@H](CC(C)C)NC(=O)[C@H](CCCCN)NC(=O)[C@H](CCCCN)NC(=O)[C@H](C)NC(=O)[C@@H](N)Cc1ccccc1)C(N)=O [compound 77]
MBC P. aerug A.27853 [1]: >50 µg/mL
MFC Candida A.10231 [2]: >50 µg/mL
MBC S. aur A.25923 [3]: >50 µg/mL
MBC E. coli A.25922 [4]: >50 µg/mL

CC[C@H](C)[C@H](NC(=O)[C@H](CC(N)=O)NC(=O)[C@H](CCCNC(=N)N)NC(=O)CNC(=O)[C@H](CCSC)NC(=O)[C@H](CCCCN)NC(=O)[C@H](CCC(=O)O)NC(=O)[C@@H](NC(=O)[C@H](CCCCN)NC(=O)[C@H](CC(C)C)NC(=O)[C@H](Cc1ccccc1)NC(=O)[C@@H](NC(=O)[C@H](CCCCN)NC(=O)[C@H](CCC(=O)O)NC(=O)[C@H](CCCCN)NC(=O)[C@@H]1CCCN1C(=O)[C@@H](N)CCSC)C(C)C)[C@@H](C)CC)C(=O)N[C@@H](CCCNC(=N)N)C(=O)N[C@@H](CC(N)=O)C(N)=O [compound 107]
MBC P. aerug A.27853 [1]: >50 µg/mL
MFC Candida A.10231 [2]: >50 µg/mL
MBC S. aur A.25923 [3]: >50 µg/mL

FAKLWAKLAKKL-NH2 [compound 136]
MBC P. aerug A.27853 [1]: INACT
MFC Candida A.10231 [2]: INACT
MBC S. aur A.25923 [3]: INACT
MBC E. coli A.25922 [4]: INACT

FAFAKIIAKIAKKII-NH2 [compound 140]
MBC P. aerug A.27853 [1]: INACT
MFC Candida A.10231 [2]: INACT
MBC S. aur A.25923 [3]: INACT
MBC E. coli A.25922 [4]: INACT

CC(C)C[C@H](NC(=O)[C@H](CCCCN)NC(=O)[C@H](CCCCN)NC(=O)[C@H](Cc1c[nH]c2ccccc12)NC(=O)[C@@H](N)CCCCN)C(=O)N[C@@H](C)C(=O)N[C@@H](CCCCN)C(=O)N[C@@H](CCCCN)C(=O)N[C@@H](Cc1c[nH]c2ccccc12)C(=O)O [compound 162]
MBC P. aerug A.27853 [1]: >250 µg/mL
MFC Candida A.10231 [2]: 100 µg/mL (≈ 82.3 µM)
MBC S. aur A.25923 [3]: >250 µg/mL
MBC E. coli A.25922 [4]: 50 µg/mL (≈ 41.1 µM)

CC(C)C[C@H](NC(=O)[C@H](CCCCN)NC(=O)[C@H](CCCCN)NC(=O)[C@H](C)NC(=O)[C@H](CC(C)C)NC(=O)[C@H](CCCCN)NC(=O)[C@H](C)NC(=O)[C@H](CC(C)C)NC(=O)[C@H](CCCCN)NC(=O)[C@H](CCCCN)NC(=O)[C@H](C)NC(=O)[C@@H](N)Cc1ccccc1)C(N)=O [compound 106]
MBC P. aerug A.27853 [1]: >50 µg/mL
MFC Candida A.10231 [2]: >50 µg/mL
MBC E. coli A.25922 [4]: 50 µg/mL (≈ 36.8 µM)

CC(C)C[C@H](NC(=O)[C@H](C)NC(=O)[C@H](CC(C)C)NC(=O)[C@H](C)NC(=O)[C@H](CCCCN)NC(=O)[C@H](CCCCN)NC(=O)[C@H](C)NC(=O)[C@H](CC(C)C)NC(=O)[C@H](CCCCN)NC(=O)[C@H](C)NC(=O)[C@H](CC(C)C)NC(=O)[C@H](CCCCN)NC(=O)[C@H](CCCCN)NC(=O)[C@H](C)NC(=O)[C@@H](N)Cc1ccccc1)C(N)=O [compound 39]
MBC P. aerug A.27853 [1]: >40 µg/mL
MBC S. aur A.25923 [3]: >40 µg/mL
MBC E. coli A.25922 [4]: >40 µg/mL

CC[C@H](C)[C@H](NC(=O)CNC(=O)[C@H](CC(N)=O)NC(=O)[C@H](CCCNC(=N)N)NC(=O)[C@@H](NC(=O)[C@H](CC(N)=O)NC(=O)[C@H](CCCNC(=N)N)NC(=O)CNC(=O)[C@@H](NC(=O)[C@H](CCCCN)NC(=O)[C@H](CCC(=O)O)NC(=O)[C@@H](NC(=O)[C@H](CCCCN)NC(=O)[C@H](CCCCN)NC(=O)[C@H](Cc1ccccc1)NC(=O)[C@@H](NC(=O)[C@H](CCCCN)NC(=O)[C@H](Cc1c[nH]c2ccccc12)NC(=O)[C@H](CCCCN)NC(=O)[C@@H]1CCCN1C(=O)[C@@H](N)CCSC)C(C)C)[C@@H](C)CC)C(C)C)[C@@H](C)CC)C(=O)N[C@H](C(=O)N[C@@H](CCCCN)C(=O)N[C@@H](C)C(=O)NCC(=O)N1CCC[C@H]1C(=O)N[C@@H](C)C(=O)N[C@H](C(=O)N[C@@H](C)C(=O)N[C@H](C(=O)N[C@@H](CC(C)C)C(=O)NCC(=O)N[C@@H](CCC(=O)O)C(=O)N[C@@H](C)C(=O)N[C@@H](CCCCN)C(=O)N[C@@H](C)C(=O)N[C@@H](CC(C)C)C(=O)NCC(N)=O)C(C)C)[C@@H](C)CC)C(C)C [compound 12]
MBC P. aerug A.27853 [1]: >60 µg/mL
MBC S. aur A.25923 [3]: 75 µg/mL (≈ 18.3 µM)
MBC E. coli A.25922 [4]: 50 µg/mL (≈ 12.2 µM)

CC[C@H](C)[C@H](NC(=O)CNC(=O)[C@H](CC(N)=O)NC(=O)[C@H](CCCNC(=N)N)NC(=O)[C@@H](NC(=O)[C@H](CC(N)=O)NC(=O)[C@H](CCCNC(=N)N)NC(=O)CNC(=O)[C@@H](NC(=O)[C@H](CCCCN)NC(=O)[C@H](CCC(=O)O)NC(=O)[C@@H](NC(=O)[C@H](CCCCN)NC(=O)[C@H](CCCCN)NC(=O)[C@H](Cc1ccccc1)NC(=O)[C@@H](NC(=O)[C@H](CCCCN)NC(=O)[C@H](Cc1c[nH]c2ccccc12)NC(=O)[C@H](CCCCN)NC(=O)[C@@H]1CCCN1C(=O)[C@@H](N)CCSC)C(C)C)[C@@H](C)CC)C(C)C)[C@@H](C)CC)C(=O)N[C@H](C(=O)N[C@@H](CCCCN)C(=O)N[C@@H](C)C(=O)NCC(=O)N1CCC[C@H]1C(=O)N[C@@H](C)C(=O)N[C@H](C(=O)N[C@@H](C)C(=O)N[C@H](C(=O)N[C@@H](CC(C)C)C(=O)NCC(=O)N[C@@H](CCC(=O)O)C(=O)N[C@@H](C)C(=O)N[C@@H](CCCCN)C(=O)N[C@@H](C)C(=O)N[C@@H](CC(C)C)C(=O)NCC(=O)O)C(C)C)[C@@H](C)CC)C(C)C [compound 5]
MBC P. aerug A.27853 [1]: >60 µg/mL
MBC S. aur A.25923 [3]: 40 µg/mL (≈ 9.78 µM)
MBC E. coli A.25922 [4]: 50 µg/mL (≈ 12.2 µM)

CC(C)C[C@H](NC(=O)[C@H](C)NC(=O)[C@H](CCCCN)NC(=O)[C@H](C)NC(=O)[C@H](CC(C)C)NC(=O)[C@H](CCCCN)NC(=O)[C@H](CCCCN)NC(=O)[C@H](C)NC(=O)[C@H](CC(C)C)NC(=O)[C@H](CCCCN)NC(=O)[C@H](C)NC(=O)[C@H](CC(C)C)NC(=O)[C@H](CCCCN)NC(=O)[C@H](CCCCN)NC(=O)[C@H](C)NC(=O)[C@@H](N)Cc1ccccc1)C(N)=O [compound 109]
MFC Candida A.10231 [2]: >50 µg/mL
MBC S. aur A.25923 [3]: 80 µg/mL (≈ 45.9 µM)

CC(C)C[C@H](NC(=O)[C@H](C)NC(=O)[C@H](CCCCN)NC(=O)[C@H](CCCCN)NC(=O)[C@H](C)NC(=O)[C@H](CCCCN)NC(=O)[C@H](CCCCN)NC(=O)[C@H](CC(C)C)NC(=O)[C@H](C)NC(=O)[C@H](CCCCN)NC(=O)[C@H](CCCCN)NC(=O)[C@H](C)NC(=O)[C@H](CC(C)C)NC(=O)[C@H](C)NC(=O)[C@@H](N)Cc1ccccc1)C(N)=O [compound 40]
MBC P. aerug A.27853 [1]: 40 µg/mL (≈ 24.6 µM)
MBC S. aur A.25923 [3]: >40 µg/mL
MBC E. coli A.25922 [4]: 30 µg/mL (≈ 18.4 µM)
